Source: patent US20230348506A1, “MACROCYCLIC PANTETHEINE DERIVATIVES AND USES THEREOF” (VectivBio Comet AG, priority 2019, published 2023)

What was measured:
Assay type in all cases: cell-based, human
[1] = test system: primary adherent fibroblast cell line derived from an Methylmalonic Acidemia (MMA) patient (GM01673, Coriell Institute for Medical Research); test: Mitochondrial respiration (Seahorse XFe96, OCR), Spare Capacity AUC; conditions: 10 μM compound; medium with 10 mM glucose, 2 mM glutamine, 1 mM pyruvate; 1 μM FCCP for 20 cycles; relative to vehicle
Protocol: The effect of the compounds of the present disclosure on mitochondrial respiration was measured with a XFe96 Extracellular Flux Analyzer (Seahorse Bioscience, Agilent Technologies) and Oxygen consumption Rate (OCR) and Extracellular acidification rate (ECAR) determined.
Cell culture and treatments. Primary adherent fibroblasts were cultured in minimum essential medium (MEM) (Gibco, 25030081) supplemented with 2 mM L-Glutamine (Gibco, 25030081), 15% fetal bovine serum (FBS) (Gibco, 26400044) and 1% penicillin/streptomycin (Gibco, 5140122) at 37° C. and 5% CO2. Cells were collected for either passaging or experiment at ˜70-80% confluence. Cells were obtained by trypsinization and seeded at 10,000 cells/well in cell culture microplates (Seahorse Bioscience, 101085-004) and allowed to adhere for 48 hours in culture media. […]
Determining the optimized cell density and concentrations for stress test, such as FCCP, were achieved through methods well known to those of skill in the art. After baseline measurements of OCR, cells were challenged with compounds of the present disclosure at different concentrations (10 to 50 μM) or vehicle (DMSO, 0.1%) and a post-compound baseline was recorded. OCR was measured after sequentially adding to each well 1.5 μg/ml oligomycin (inhibitor of ATP synthase Sigma-Aldrich, 753531), then maximal OCR was determined with carbonyl cyanide 4-(trifluoromethoxy) phenylhydrazone (FCCP, Sigma-Aldrich, C2920), (uncoupler of oxidative phosphorylation) and 1.0 μM of rotenone (Sigma-Aldrich, R8875) plus antimycin A (Sigma-Aldrich, A8674) (inhibitors of mitochondrial complex I and III) for determination of rotenone-antimycin insensitive respiration together with Hoechst for nuclear staining in situ when normalized to cell counts. After the analysis and nuclear staining, the XFp microplate was transferred to the Cytation 5, and the nuclear images were captured, the individual nuclei were identified and counted by BioTek Gen5 software. […]

HepG2 cells = test: Glucose uptake (Glucose Uptake-Glo assay); conditions: 10 μM compound; insulin control 100 nM
Protocol: The effect of compounds from the present disclosure on glucose uptake was determined in HepG2 cells (ATCC, HB-8065) using the glucose uptake Glo Assay Kit (Promega, J1343 according to manufacturer instructions. HepG2 cells were cultured in complete DMEM-glucose media (Gibco) supplemented with 10% FBS (37° C. incubator with 5% CO2) and seeded in 96-well plates at 30,000 cells/well. After removing the complete media, 100 μL/well of serum-free, high-glucose DMEM media were added to the wells and incubated overnight (37° C. incubator with 5% CO2). Media was then replaced with 100 μL/well DPBS containing 0.6% BSA and starved for 1 hour. Next, DPBS was removed and 45 μl/well of insulin (100 nM) or compounds (10 μM-50 μM) were added to the wells and incubated for 10 minutes (37° C. incubator with 5% CO2). Insulin and compounds were prepared in DPBS with 0.6% BSA with a final DMSO concentration of 0.1%. Next, 5 μL of 2DG (10 mM) in DPBS were added per well and allowed to incubate for 20 minutes followed by addition of 25 μL stop buffer. 37.5 μL of the mixture were then transferred to a new plate and 12.5 μL of Neutralization buffer added to the wells. After, 50 μL of 2DG6P detection Reagent were added and incubated for 0.5-1 hour at room temperature. Luminescence was measured with 0.3-1 second integration on a luminometer. […]

[2] = test system: MMA Patient fibroblasts (GM01673, Coriell Institute for Medical Research); test: Mitochondrial fusion and networking (high-content imaging); parameters: key: Mitochondrial elongation and networking was described as slight, mild or good; Mitochondrial elongation and networking was described as slight, mild or good; Mitochondrial elongation and networking was described as slight, mild or good; conditions: 10 μM compound, 2 hours, compared to vehicle control
Protocol: Cells were seeded in 96-well plates (density 3000 cells/well) in culture minimum MEM (GIBCO, 10370-021) supplemented with 2 mM L-Glutamine (Thermo Fisher Scientific), 15% FBS (Thermo Fisher Scientific 26400044) and 1% penicillin/streptomycin. Cells were incubated for 48 hours (37° C, 5% CO2), then treated with 10 μM compounds from the present disclosure, 1% DMSO (vehicle) or 5 μM FCCP (control) for 2 hours in fasted conditional medium: Agilent XF DMEM (Agilent 103575-100), pH 7.4 supplemented with 10% FBS (Thermo Fisher Scientific 26400044), 0.03% penicillin/streptomycin 1 mM glucose, 2 mM L-glutamine and 1 mM pyruvate.
After treatment, media was removed, and cells were stained with 100 μl of 1×mixture dye solution of 1 μg/mL JC-1 (Invitrogen Cat #T3168) and 50 ng/ml MitoTracker deep red (Invitrogen Cat #M22426) at 37° C. for 30 minutes. Next, staining was removed, the cells were washed once with 150 μl PBS, and 150 μl of fasted conditional medium (described above) is added to each well. Analysis was carried out on live cells using a Thermo Scientific CellInsight CX7 LZR High-Content Screening Platform. Mitochondrial elongation and networking was described as slight, mild or good.

Which results are given for `CC(C)(CO)[C@H]1OC(=O)CCC(=O)SCCNC(=O)CCNC1=O` [Compound 61, (R)-2-(1-hydroxy-2-methylpropan-2-yl)-1-oxa-11-thia-4,8-diazacyclopentadecane-3,7,12,15-tetraone]?
increase of Spare Capacity AUC [1]: > 20%; stimulation of Glucose Uptake, % of insulin control (HepG2 cells): at least 15%; mitochondrial elongation and networking [2]: slight
